One test has as its target tubulin colchicine site (Bos taurus, UniProt P81947+Q6B856). Description: Inhibition of [3H]colchicine binding to tubulin. The note with it: read-out: inhibition of colchicine binding % inhibition ± SD.
The next test concerns HBL1 (ABC DLBCL). Description: MTT cell proliferation, lymphoma. The class given is cell-based. Particulars: Homo sapiens, 72 h; for activity at 1 µM: of untreated cells, read-out: Proliferating cells (%). The method, then: (§1) All compounds were further tested at the concentration of 1 μM on four cell lines derived from distinct lymphoma histotypes, plus two with secondary resistance to the PI3Kδ inhibitor idelalisib[51] or to the BTK inhibitor ibrutinib.[52] […] For comparison, the same experiments were conducted using compound 3, but the response to it was minimal, and thus it was not considered further.
(§2) Established human cell lines derived from germinal center B-cell (GCB) (SU-DHL-10), activated B-cell (ABC) (HBL1) diffuse large B-cell lymphoma (DLBCL), mantle cell lymphoma (MCL) (MINO), splenic marginal zone lymphoma (SMZL) (parental VL51, VL51 idelalisib resistant clone, VL51 ibrutinib resistant clone) were cultured in culture RPMI-1640 media supplemented with fetal bovine serum (10%), penicillin–streptomycin–neomycin (∼5,000 units of penicillin, 5 mg of streptomycinm and 10 mg of neomycin/mL, Sigma), and L-glutamine (1%). Vincristine sulfate was purchased from Sigma-Aldrich. Cell line identities were confirmed by CellCheck test (IDEXX, BioResearch, Ludwigsburg, Germany). All compounds were dissolved in dimethyl sulfoxide to obtain a stock concentration of 10 mM.
(§3) The antiproliferative activity of all compounds was assessed by using the 3-(4.5-dimethylthiazolyl-2)-2,5-diphenyltetrazolium bromide (MTT) test. Cells were seeded in 96-well plates (nontissue culture treated) at a density of 1 × 10^5 cells/mL and treated with a single concentration of 1 μM for 72 h. […] In this case, cells were treated in triplicate with serially diluted compounds in the appropriate tissue culture medium at a range of 40–10 000 nM. Cells were incubated for 72 h at 37 °C, 5% CO2. Wells containing medium only were included on each plate and served as blanks for absorbance readings. MTT (Sigma, Buchs, Switzerland) was prepared as a 5 mg/mL stock solution in phosphate buffered saline (PBS) and filter-sterilized. MTT solution (22 μL) was added to each well, and tissue culture plates were incubated at 37 °C for 4 h. Cells were then lysed with 25% sodium dodecyl sulfate lysis buffer, and absorbance was read at 570 nm using a Beckman Coulter-AD340 plate reader.

Another test has as its system MINO (MCL). The experiment in a line: MTT cell proliferation, lymphoma. In kind it is cell-based. The note with it: Homo sapiens, 72 h; for activity at 1 µM: of untreated cells, read-out: Proliferating cells (%). How it is done:
as §1, §2, §3

In a further test the test system is SU-DHL-10 (GCB DLBCL). The experiment in a line: MTT cell proliferation, lymphoma. Particulars: Homo sapiens, SU-DHL10, 72 h; for activity at 1 µM: of untreated cells, read-out: Proliferating cells (%). In kind it is cell-based. The method, then:
as §1, §2, §3

The next test has as its system VL51 (MZL). The experiment in a line: MTT cell proliferation, lymphoma. The class given is cell-based. Particulars: Homo sapiens, 72 h; for activity at 1 µM: of untreated cells, read-out: Proliferating cells (%). How it is done: as §1, §2, §3
The subject of the next test is VL51 ibrutinib-resistant. Description: MTT cell proliferation, lymphoma. The note with it: Homo sapiens, 72 h, of untreated cells, read-out: Proliferating cells (%). In kind it is cell-based. How it is done: as §1, §2, §3
Test [1] deals with VL51 idelalisib-resistant. The experiment in a line: MTT cell proliferation, lymphoma. The class given is cell-based. Particulars: Homo sapiens, 72 h, of untreated cells, read-out: Proliferating cells (%). The method, then:
as §1, §2, §3

In the next test the test system is six lymphoma cell lines. Description: MTT cell proliferation, all lymphoma cell lines. The class given is cell-based, human. Particulars: 1 μM, 72 h, of the untreated cells. How it is done:
as §1
Established human cell lines derived from germinal center B-cell (GCB) (SU-DHL-10), activated B-cell (ABC) (HBL1) diffuse large B-cell lymphoma (DLBCL), mantle cell lymphoma (MCL) (MINO), splenic marginal zone lymphoma (SMZL) (parental VL51, VL51 idelalisib resistant clone, VL51 ibrutinib resistant clone) were cultured in culture RPMI-1640 media supplemented with fetal bovine serum (10%), penicillin–streptomycin–neomycin (∼5,000 units of penicillin, 5 mg of streptomycinm and 10 mg of neomycin/mL, Sigma), and L-glutamine (1%). Vincristine sulfate was purchased from Sigma-Aldrich. […]
The antiproliferative activity of all compounds was assessed by using the 3-(4.5-dimethylthiazolyl-2)-2,5-diphenyltetrazolium bromide (MTT) test. […] Wells containing medium only were included on each plate and served as blanks for absorbance readings. […] Cells were then lysed with 25% sodium dodecyl sulfate lysis buffer, and absorbance was read at 570 nm using a Beckman Coulter-AD340 plate reader.

The next test deals with bovine brain tubulin (Bos taurus, UniProt P81947+Q6B856). Description: Inhibition of tubulin assembly (turbidimetry). Particulars: 9 μM (0.9 mg/mL) tubulin, 20 min at 30 °C; read-out: inhibition of tubulin assembly IC50 ± SD. In kind it is biochemical.
Chain of bovine brain tubulin (Q6B856 whole entry): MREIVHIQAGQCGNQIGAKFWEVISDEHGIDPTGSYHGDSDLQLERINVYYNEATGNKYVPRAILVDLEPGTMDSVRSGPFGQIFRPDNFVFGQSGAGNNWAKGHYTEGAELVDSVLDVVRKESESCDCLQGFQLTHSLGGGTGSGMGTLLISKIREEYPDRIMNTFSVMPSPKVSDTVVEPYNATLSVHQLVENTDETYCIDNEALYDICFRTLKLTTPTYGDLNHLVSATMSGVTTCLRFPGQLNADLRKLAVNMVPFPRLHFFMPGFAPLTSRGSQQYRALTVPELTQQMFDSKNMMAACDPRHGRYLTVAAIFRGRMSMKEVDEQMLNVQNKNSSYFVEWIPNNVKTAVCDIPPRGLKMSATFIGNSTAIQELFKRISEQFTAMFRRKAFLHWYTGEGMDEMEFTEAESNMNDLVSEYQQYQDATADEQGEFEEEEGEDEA
Chain of bovine brain tubulin (P81947 whole entry): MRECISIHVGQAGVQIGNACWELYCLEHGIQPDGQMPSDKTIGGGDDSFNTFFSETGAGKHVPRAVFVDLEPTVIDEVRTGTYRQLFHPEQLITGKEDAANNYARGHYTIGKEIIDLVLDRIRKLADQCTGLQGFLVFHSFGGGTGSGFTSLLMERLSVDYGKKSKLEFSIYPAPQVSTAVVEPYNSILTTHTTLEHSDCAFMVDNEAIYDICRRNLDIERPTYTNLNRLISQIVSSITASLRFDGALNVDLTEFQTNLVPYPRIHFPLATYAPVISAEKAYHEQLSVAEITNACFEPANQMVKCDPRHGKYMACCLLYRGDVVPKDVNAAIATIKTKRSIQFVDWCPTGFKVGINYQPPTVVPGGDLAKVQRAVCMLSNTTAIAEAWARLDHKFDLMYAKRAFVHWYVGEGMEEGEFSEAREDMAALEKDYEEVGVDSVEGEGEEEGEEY
For test [2], the system named is NCI-60 panel of human cancer cell lines. Details: method as in earlier work. The note with it: full NCI panel, ref 42−45, cited from earlier work.
For another test, the system named is tumor growth. Details: method as in PMID 17915194, PMID 21215627. Particulars: in vivo models, dose of 50–100 mg/kg; cited from earlier work.
Test [3] has as its system human peripheral blood lymphocytes not stimulated with PHA. The experiment in a line: Cytotoxicity in resting PBLs (MTT). Particulars: Lymphocyte, 72 h, mean ± SEM, three experiments, read-out: GI50 PBLresting. The class given is cell-based. How it is done: (§4) PBLs were obtained from human peripheral blood (leucocyte rich plasma-buffy coats) from healthy volunteers using the Lymphoprep (Fresenius KABI Norge AS) gradient density centrifugation.
(§5) After extensive washing, cells were resuspended (1.0 × 10^6 cells/mL) in RPMI-1640 with 10% fetal bovine serum and incubated overnight. For cytotoxicity evaluations in proliferating PBL cultures, nonadherent cells were resuspended at 5 × 10^5 cells/mL in growth medium, containing 2.5 μg/mL PHA (Irvine Scientific). Different concentrations of the test compounds were added, and viability was determined 72 h later by the MTT test. For cytotoxicity evaluations in resting PBL cultures, nonadherent cells were resuspended (5 × 10^5 cells/mL) and treated for 72 h with the test compounds.

The test system of test [4] is human peripheral blood lymphocytes stimulated with PHA. The experiment in a line: Cytotoxicity in PHA-stimulated PBLs (MTT). In kind it is cell-based. The note with it: Lymphocyte, 72 h, mean ± SEM, three experiments, read-out: GI50 PBLPHA. The method, then: as §4, §5

Molecules are shown by their SMILES.

Here are results for seven compounds from article PMC7901646, “Pyrrolo[2′,3′:3,4]cyclohepta[1,2-d][1,2]oxazoles, a New Class of Antimitotic Agents Active against Multiple Malignant Cell Types” (Journal of Medicinal Chemistry, 2020).

Chain of tubulin colchicine site (Q6B856 whole entry): as the sequence (Q6B856 whole entry) above
Chain of tubulin colchicine site (P81947 whole entry): as the sequence (P81947 whole entry) above
Method for tubulin colchicine site: Reaction mixtures in the assembly assay contained 9 μM (0.9 mg/mL) tubulin in the assembly assay, and in the colchicine assay they contained 0.5 μM tubulin, 5.0 μM [^3H]colchicine, and 5.0 μM inhibitor.
Analysis of effects on tubulin polymerization was performed by turbidimetry at 350 nm in recording spectrophotometers equipped with electronic temperature controllers as described in detail elsewhere.[71] […] The binding of [^3H]colchicine to tubulin was perfomed as described in detail previously[72] except that the tubulin concentration was reduced from 0.1 mg/mL to 0.05 mg/mL and only one, instead of two, DEAE-cellulose filter was used for each reaction mixture.

Regarding `COc1ccc(/C=C\c2cc(OC)c(OC)c(OC)c2)cc1O` [CA-4, combretastatin A-4, reference compound], the inhibition at 5 µM on tubulin colchicine site was 97 ± 0.9%.

On to `CCOC(=O)c1cc2c(n1Cc1cc(OC)cc(OC)c1)-c1oncc1CC2` [Compound 3, ethyl 8-(3,5-dimethoxybenzyl)-5,8-dihydro-4H-[1,2]oxazolo[4,5-g]indole-7-carboxylate, reference compound], for which the activity at 1 µM with HBL1 (ABC DLBCL) turned out to be 95.6%; with MINO (MCL), 94.5%; in the test on SU-DHL-10 (GCB DLBCL), 80%; in the test with VL51 (MZL), 93.5%; with VL51 ibrutinib-resistant it was 123%; in test [1], 107%. The “percentage of proliferating cells, all tested cell lines” value in the test with six lymphoma cell lines is recorded as “minimal”. Besides, the IC50 on bovine brain tubulin is 9.2 ± 0.4 µM. For the same compound, the “MG_MID (mean graph midpoint)” value in [2] was 0.25 µM. Besides, in test [2] (read-out: GI50 range), the GI50 is 0.03 to 31.1 µM.

For `COc1ccc(Cn2ccc3c2-c2oncc2CCC3)cc1` [Compound 56, 9-(4-Methoxybenzyl)-4,5,6,9-tetrahydropyrrolo[2′,3′:3,4]cyclohepta[1,2-d][1,2]oxazole], the activity at 1 µM with HBL1 (ABC DLBCL) came to 123%; with MINO (MCL), 109%; with SU-DHL-10 (GCB DLBCL) it was 74.6%; in the test with VL51 (MZL), 110%; in the test on VL51 ibrutinib-resistant it was 110%; in test [1], 127%. The IC50 on bovine brain tubulin is 8.2 ± 0.5 µM.

In the case of `COc1ccc(OC)c(Cn2ccc3c2-c2oncc2CCC3)c1` [Compound 57, 9-(2,5-Dimethoxybenzyl)-4,5,6,9-tetrahydropyrrolo[2′,3′:3,4]cyclohepta[1,2-d][1,2]oxazole], the activity at 1 µM in the test with HBL1 (ABC DLBCL) was 29.6%; in the test on MINO (MCL), 8.5%; with SU-DHL-10 (GCB DLBCL), 11%; in the test with VL51 (MZL) it was 36.5%; with VL51 ibrutinib-resistant, 37%; in test [1], 34.3%. In addition, the IC50 is 600 nM in the test on HBL1 (ABC DLBCL) (MTT); 400 nM with MINO (MCL) (MTT); 300 nM in the test on SU-DHL-10 (GCB DLBCL) (MTT); 200 nM in the test on VL51 (MZL) (MTT); 3.2 ± 0.06 µM at bovine brain tubulin. In addition, on tubulin colchicine site, the inhibition at 5 µM worked out at 38 ± 0.7%.

On to `COc1cc(Cn2ccc3c2-c2oncc2CCC3)cc(OC)c1` [Compound 58, 9-(3,5-Dimethoxybenzyl)-4,5,6,9-tetrahydropyrrolo[2′,3′:3,4]cyclohepta[1,2-d][1,2]oxazole], for which the activity at 1 µM in the test with HBL1 (ABC DLBCL) was 114%; with MINO (MCL), 101%; in the test with SU-DHL-10 (GCB DLBCL), 72.4%; in the test on VL51 (MZL), 84%; in the test on VL51 ibrutinib-resistant, 73%; in [1] it was 78.4%. For the same compound, at bovine brain tubulin, the IC50 turned out to be 5.7 ± 1 µM. Besides, the inhibition at 5 µM at tubulin colchicine site was determined as 25 ± 3%.

In the case of `CCc1cc(-c2oncc2-c2ccc(OC)cc2)c(O)cc1OC` [KRIBB3], the “reduction of tumor growth” value in the test on tumor growth is listed as 50–70%.

Take `CC[C@]1(O)C[C@H]2CN(CCc3c([nH]c4ccccc34)[C@@](C(=O)OC)(c3cc4c(cc3OC)N(C=O)[C@H]3[C@@](O)(C(=O)OC)[C@H](OC(C)=O)[C@]5(CC)C=CCN6CC[C@]43[C@@H]65)C2)C1` [vincristine, reference compound]: the GI50 in test [3] turned out to be 7.5 ± 3.1 µM; in test [4], 1200 ± 600 nM.
